The assay addresses T1, hITK enzyme (FLAG-tagged full-length hITK) (Homo sapiens, UniProt Q08881).
T1 construct: strongly expressing FLAG-tagged full-length hITK in Sf9 cells; FLAG; made in house; host or cells: Sf9 insect cells (ITK); Escherichia coli (GST-SLP76 substrate)
T1 sequence (Q08881 1-620): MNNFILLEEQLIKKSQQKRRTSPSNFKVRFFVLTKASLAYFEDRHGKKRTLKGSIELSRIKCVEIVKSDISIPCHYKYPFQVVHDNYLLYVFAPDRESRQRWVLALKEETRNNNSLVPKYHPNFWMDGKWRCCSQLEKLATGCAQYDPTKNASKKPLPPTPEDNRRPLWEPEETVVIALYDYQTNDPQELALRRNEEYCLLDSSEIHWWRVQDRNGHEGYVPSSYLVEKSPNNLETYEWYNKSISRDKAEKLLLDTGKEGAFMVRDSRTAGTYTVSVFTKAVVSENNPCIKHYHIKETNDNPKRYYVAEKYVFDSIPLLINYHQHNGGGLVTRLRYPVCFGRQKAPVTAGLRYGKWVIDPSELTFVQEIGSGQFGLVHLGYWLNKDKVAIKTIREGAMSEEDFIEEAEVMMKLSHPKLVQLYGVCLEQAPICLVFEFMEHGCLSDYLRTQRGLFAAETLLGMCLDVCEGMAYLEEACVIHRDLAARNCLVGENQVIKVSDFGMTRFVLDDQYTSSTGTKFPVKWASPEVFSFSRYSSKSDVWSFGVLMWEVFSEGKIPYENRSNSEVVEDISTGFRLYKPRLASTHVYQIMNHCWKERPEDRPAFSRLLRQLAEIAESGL
Briefly: ITK inhibitory activity (HTRF kinase assay, biotinylated GST-SLP76 substrate). The format is biochemical. The settings on record: IC50 calculated from the 2 test compound concentrations sandwiching 50% ITK inhibitory rate. The gist of the method: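 Sf9-expressed hITK (50 ng/mL enzyme solution) reacted 10 min at RT in MOPS pH 7.0, 10 mmol/L MgCl2, 1 mmol/L DTT with E. coli SLP76 aa95–175 substrate; substrate solution held 100 µmol/L ATP (6 µmol/L for selected compounds). HTRF 665/620 ratio, blank-corrected; IC50 interpolated between two concentrations bracketing 50% inhibition.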
Usually IC50 stands for the midpoint of a concentration-inhibition curve. Consider `CN(CC(=O)N(C)c1ccc2cc(-c3n[nH]c4c3CCC(C)(C)C4)[nH]c2c1)C(=O)C(C)(C)C` [Example 179], for which the IC50 was 1 nM.

Turning to `CC(=O)N(C)c1ccc2cc(-c3n[nH]c4c3CCC(C)(C)C4)[nH]c2c1` [Example 1, N-[2-(6,6-dimethyl-4,5,6,7-tetrahydro-1H-indazol-3-yl)-1H-indol-6-yl]-N-methylacetamide], the IC50 was 7 nM.

As to `CC1(C)CCc2c(-c3cc4cc(C(=O)N5CCc6[nH]cnc6C5)ccc4[nH]3)n[nH]c2C1` [Example 334], the IC50 is 31 nM.

As to `CC(O)C(=O)N(C)c1ccc2cc(-c3n[nH]c4c3CCC(C)(C)C4)[nH]c2c1` (centres unmarked) [Example 46], the IC50 was 5 nM.

Turning to `CN(CC(=O)O)C(=O)c1ccc2[nH]c(-c3n[nH]c4c3CCC(C)(C)C4)cc2c1` [Example 312], the IC50 is 27 nM.

As for `CCC(O)C(=O)N(C)c1ccc2cc(-c3n[nH]c4c3CCC(C)(C)C4)[nH]c2c1` (centres unmarked) [Example 49], the IC50 was 3 nM.

In the case of `CCN(C(=O)CN1CC(C)(C)OCC1=O)c1ccc2cc(-c3n[nH]c4c3CCC(C)(C)C4)[nH]c2c1` [Example 277], the IC50 was 1 nM.

For the compound `COCC(=O)N(C)CC(=O)N(C)c1ccc2cc(-c3n[nH]c4c3CCC(C)(C)C4)[nH]c2c1` [Example 180], the IC50 is under 1 nM.

On to `CO[C@H]1CCCN(C(C)C(=O)N(C)c2ccc3cc(-c4n[nH]c5c4CCC(C)(C)C5)[nH]c3c2)C1` (some centres unmarked) [Example 116], for which the 50% inhibitory concentration (IC50) is 9 nM.

As to `CCN(C(=O)CN1CCOCC1=O)c1ccc2cc(-c3n[nH]c4c3CCC(C)(C)C4)[nH]c2c1` [Example 288], the IC50 was 1 nM.

As to `CN(C)C(=O)c1ccc2[nH]c(-c3n[nH]c4c3CCC(C)(C)C4)cc2c1` [Example 296], the IC50 was 58 nM.

Turning to `CN(C(=O)c1ccccc1)c1ccc2cc(-c3n[nH]c4c3CCCC4)[nH]c2c1` [Example 350], the IC50 is 62 nM.

Regarding `C[C@H](C(=O)N(C)c1ccc2cc(-c3n[nH]c4c3CCC(C)(C)C4)[nH]c2c1)N1CCOCC1` [Example 135], the IC50 was 6 nM.

For `CCN(C(=O)C(C)C1CCOCC1)c1ccc2cc(-c3n[nH]c4c3CCC(C)(C)C4)[nH]c2c1` (centres unmarked) [Example 263], the IC50 was 7 nM.

As to `CC1(C)CCc2c(-c3cc4cc(C(=O)NC(C)(C)C(=O)OC(C)(C)C)ccc4[nH]3)n[nH]c2C1` [Example 327], the IC50 is 132 nM.

In the case of `CC1(C)CCc2c(-c3cc4cc(C(=O)NC(C)(C)CO)ccc4[nH]3)n[nH]c2C1` [Example 320], the IC50 was 49 nM.

With `CCC(=O)N(C)c1ccc2cc(-c3n[nH]c4c3CC(OC)C(C)(C)C4)[nH]c2c1` (centres unmarked) [Example 372], the IC50 is 11 nM.

For the compound `CC1(C)CCc2c(-c3cc4cc(C(=O)NCc5ccccc5)ccc4[nH]3)n[nH]c2C1` [Example 315], the IC50 was 60 nM.

As for `C[C@@H]1CN(CC(=O)N(C)c2ccc3cc(-c4n[nH]c5c4CCC(C)(C)C5)[nH]c3c2)C(=O)CO1` [Example 182], the IC50 was 2 nM.

`COCCN(C(=O)CC1CCC(OC)CC1)c1ccc2cc(-c3n[nH]c4c3CCC(C)(C)C4)[nH]c2c1` (centres unmarked) [Example 274]: the IC50 is 9 nM.

In the case of `CN(C(=O)OCc1ccccc1)c1ccc2cc(-c3n[nH]c4c3CCC(C)(C)C4)[nH]c2c1` [Example 3, benzyl N-{2-(6,6-dimethyl-4,5,6,7-tetrahydro-1H-indazol-3-yl)-1H-indol-6-yl}-N-methylcarbamate], the IC50 is 39 nM.

Consider `CC(C(=O)N(C)c1ccc2cc(-c3n[nH]c4c3CCC(C)(C)C4)[nH]c2c1)N1CCC[C@H](O)C1` (some centres unmarked) [Example 111], for which the IC50 was 9 nM.

`CN(Cc1ccccc1)C(=O)c1ccc2[nH]c(-c3n[nH]c4c3CCC(C)(C)C4)cc2c1` [Example 314]: the IC50 is 143 nM.

Take `CN(C(=O)CN1CC(C)(C)CCC1=O)c1ccc2cc(-c3n[nH]c4c3CCC(C)(C)C4)[nH]c2c1` [Example 175]: the IC50 was 2 nM.

On to `CN(C(=O)CN1CCCCCC1=O)c1ccc2cc(-c3n[nH]c4c3CCC(C)(C)C4)[nH]c2c1` [Example 127], for which the IC50 is 1 nM.

Regarding `CO[C@H]1CCCN(CC(=O)N(C)c2ccc3cc(-c4n[nH]c5c4CCC(C)(C)C5)[nH]c3c2)C1` [Example 114], the IC50 was 5 nM.

In the case of `CCN1CCN(C(=O)c2ccc3[nH]c(-c4n[nH]c5c4CCC(C)(C)C5)cc3c2)CC1` [Example 337], the IC50 was 49 nM.

As for `C[C@@H]1CN(CC(=O)N(C)c2ccc3cc(-c4n[nH]c5c4CCC(C)(C)C5)[nH]c3c2)C[C@H](C)O1` [Example 119], the IC50 is 3 nM.

With `CCN(C(=O)CN1CCCCC1=O)c1ccc2cc(-c3n[nH]c4c3CCC(C)(C)C4)[nH]c2c1` [Example 289], the IC50 is under 1 nM.

With `CC(C)CN(C)C(=O)c1ccc2cc(-c3n[nH]c4c3CCC(C)(C)C4)[nH]c2c1` [Example 17], the IC50 is 5 nM.

With `CN(C(=O)C1CCCO1)c1ccc2cc(-c3n[nH]c4c3CCC(C)(C)C4)[nH]c2c1` (centres unmarked) [Example 52], the IC50 is under 3 nM.

Regarding `CN(C(=O)CN1CCC[C@H](O)C1)c1ccc2cc(-c3n[nH]c4c3CCC(C)(C)C4)[nH]c2c1` [Example 109], the IC50 is 6 nM.

Regarding `CCN(C(=O)CC1CCOCC1)c1ccc2cc(-c3n[nH]c4c3CCC(C)(C)C4)[nH]c2c1` [Example 268], the IC50 was 5 nM.

`CN(C(=O)COc1ccccc1)c1ccc2cc(-c3n[nH]c4c3CCCC4)[nH]c2c1` [Example 362]: the IC50 is 12 nM.

As for `CN(C(=O)C1CC(=O)OC1(C)C)c1ccc2cc(-c3n[nH]c4c3CCC(C)(C)C4)[nH]c2c1` (centres unmarked) [Example 106], the IC50 is 7 nM.

Take `CO[C@H]1CN(CC(=O)N(C)c2ccc3cc(-c4n[nH]c5c4CCC(C)(C)C5)[nH]c3c2)C[C@H]1OC` [Example 155]: the IC50 is 9 nM.

As for `CN(C(=O)CCN1CCCCC1=O)c1ccc2cc(-c3n[nH]c4c3CCC(C)(C)C4)[nH]c2c1` [Example 141], the IC50 was 10 nM.

Turning to `CN(c1ccc2cc(-c3n[nH]c4c3CCC(C)(C)C4)[nH]c2c1)C(=O)[C@H]1CC[C@H](O)CC1` [Example 101], the IC50 is 13 nM.

Turning to `CC1(C)CCc2c(-c3cc4ccc(N5CCC(O)C5=O)cc4[nH]3)n[nH]c2C1` (centres unmarked) [Example 227], the IC50 was 34 nM.

Consider `CC(CO)C(=O)N(C)c1ccc2cc(-c3n[nH]c4c3CCC(C)(C)C4)[nH]c2c1` (centres unmarked) [Example 61], for which the IC50 is 6 nM.

As for `CC1(C)CCc2c(-c3cc4ccc(N(CCO)C(=O)CN5CCCCC5=O)cc4[nH]3)n[nH]c2C1` [Example 253], the IC50 is 2 nM.

On to `CO[C@@H]1CCCN(C(C)C(=O)N(C)c2ccc3cc(-c4n[nH]c5c4CCC(C)(C)C5)[nH]c3c2)C1` (some centres unmarked) [Example 117], for which the half-maximal inhibitory concentration (IC50) was 6 nM.

With `CN(C(=O)CN1CC(C)(C)OCC1=O)c1ccc2cc(-c3n[nH]c4c3CCC(C)(C)C4)[nH]c2c1` [Example 184], the IC50 was 1 nM.

As for `CC(CO)N(C)C(=O)c1ccc2cc(-c3n[nH]c4c3CCC(C)(C)C4)[nH]c2c1` (centres unmarked) [Example 7, 2-(6,6-dimethyl-4,5,6,7-tetrahydro-1H-indazol-3-yl)-1H-indole-6-carboxylic acid (2-hydroxy-1-methylethyl)methylamide], the IC50 is 39 nM.

As to `COCC(C(C)C)N(C)C(=O)c1ccc2cc(-c3n[nH]c4c3CCC(C)(C)C4)[nH]c2c1` (centres unmarked) [Example 26], the IC50 was 85 nM.

As to `COC(C)C(=O)N(C)c1ccc2cc(-c3n[nH]c4c3CCC(C)(C)C4)[nH]c2c1` (centres unmarked) [Example 41], the IC50 is 4 nM.

Take `CN(C(=O)COc1ccccc1)c1ccc2cc(-c3n[nH]c4c3CCC(C)(C)C4)[nH]c2c1` [Example 45]: the IC50 is under 3 nM.

As for `CCC(=O)N(C)c1ccc2cc(-c3n[nH]c4c3CCCC4)[nH]c2c1` [Example 351], the IC50 is 24 nM.

As to `CC1(C)CCc2c(-c3cc4ccc(N(CCO)C(=O)C5CCOCC5)cc4[nH]3)n[nH]c2C1` [Example 236], the IC50 was 6 nM.

Turning to `CCCOCC(=O)N(C)c1ccc2cc(-c3n[nH]c4c3CCC(C)(C)C4)[nH]c2c1` [Example 55], the IC50 is under 3 nM.

Take `CN(C(=O)CC(C)(C)O)c1ccc2cc(-c3n[nH]c4c3CCC(C)(C)C4)[nH]c2c1` [Example 69]: the IC50 was 4 nM.

On to `COCCN(C)C(=O)c1ccc2[nH]c(-c3n[nH]c4c3CCC(C)(C)C4)cc2c1` [Example 313], for which the IC50 was 47 nM.

Consider `CCCC(=O)N(C)c1ccc2cc(-c3n[nH]c4c3CCC(C)(C)C4)[nH]c2c1` [Example 38], for which the IC50 was 5 nM.

Take `CN(C(=O)COC1CCOCC1)c1ccc2cc(-c3n[nH]c4c3CCC(C)(C)C4)[nH]c2c1` [Example 88]: the IC50 was 3 nM.

With `CCN(C(=O)COC)c1ccc2cc(-c3n[nH]c4c3CCC(C)(C)C4)[nH]c2c1` [Example 207], the IC50 was 4 nM.

With `CN(C(=O)Cn1ccnc1)c1ccc2cc(-c3n[nH]c4c3CCC(C)(C)C4)[nH]c2c1` [Example 89], the IC50 was under 3 nM.

The values are drawn from patent US8299070B2, “Indole compounds and pharmaceutical use thereof” (Japan Tobacco Inc., priority 2009, dated 2012).
